System: hyperactivité induite par la N-allylnormétazocine
Experiment: Antagonism of N-allylnormetazocine-induced hyperactivity
Format: in vivo
Conditions: dose 32 mg.kg⁻¹; rats; N-allylnormetazocine 50 mg/kg subcutaneous
Source text: Ce test a été mis au point par Snyder S.H. et al (J. Neuropsychiatry, 1989, 1 : 7-15). La N-allylnormetazocine ((+) SKF 10047) induit un comportement psychotique chez l'homme et est le prototype d'agoniste pour les récepteurs σ.
La mesure de l'hyperactivité induite par ce produit est donc utilisée comme modèle alternatif pour détecter l'activité antipsychotique des composés agissant sur les récepteurs σ.
Un groupe de 12 rats est traité avec le composé à tester avant l'administration sous-cutanée de 50 mg/kg de la N-allylnormetazocine. 30 minutes plus tard, les animaux sont placés dans un actimètre pendant 30 minutes.
L'halopéridol est utilisé comme composé de référence.

CCC(=Cc1ccccc1)C(=O)N1CCN(Cc2ccccc2)CC1 [Exemple 9, 1-(3-phényl-2-éthylprop-2-ènoyl)-4-benzylpipérazine]
antagonisme de l'hypermotilité induite par la N-allylnormétazocine: 42%
